Experimental data from patent US20240293392A1, “INHIBITOR COMPOUNDS” (NeoPhore Limited, priority 2021, published 2024).

Key:
[1] = target: T1, recombinant N-terminal PMS2 (residues 1-365) (Homo sapiens, UniProt P54278); experiment: Fluorescence Polarisation Assay for PMS2; format: binding; conditions: fluorescence polarisation probe displacement; 10 nM N-terminal PMS2, 5 nM probe compound; read-out: PMS2 IC50
T1 construct: recombinant N-terminal PMS2 (residues 1-365)
T1 sequence (P54278 1-365): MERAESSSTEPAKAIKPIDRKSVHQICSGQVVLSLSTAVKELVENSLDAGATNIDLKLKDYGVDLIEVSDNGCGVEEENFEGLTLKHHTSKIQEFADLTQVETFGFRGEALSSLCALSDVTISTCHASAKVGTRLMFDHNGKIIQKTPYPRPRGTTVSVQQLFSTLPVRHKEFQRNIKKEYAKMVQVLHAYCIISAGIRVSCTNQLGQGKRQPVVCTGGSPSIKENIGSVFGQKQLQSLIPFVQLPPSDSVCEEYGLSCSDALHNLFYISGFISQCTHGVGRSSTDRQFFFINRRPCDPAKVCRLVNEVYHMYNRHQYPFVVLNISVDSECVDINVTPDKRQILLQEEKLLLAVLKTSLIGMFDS
Protocol: Fluorescence Polarisation Assay for PMS2
For single point screening, test compounds were added to wells in columns 1-22 whilst DMSO was added to wells in columns 23 and 24 in order to normalise the plate. For potency determination, serial dilutions of test compounds were added to wells in columns 3-22 and DMSO volume was normalised across the plate.
20 μL assay buffer was added to all wells in columns 1 and 24 (column 24 only for single point screening) using a MultiDrop Combi (ThermoFisher). Plates were centrifuged for 1 minute at 250×g and were incubated at room temperature for 30 minutes prior to the addition of 20 μL of 2× (20 nM) of 5-((5-(4-((2-(2,4-dihydroxy-5-isopropylbenzoyl)isoindolin-5-yl)methyl)piperazin-1-yl)pentyl)carbamoyl)-2-(6-(dimethylamino)-3-(dimethyliminio)-3H-xanthen-9-yl)benzoate (referred to hereinafter as “probe compound”) in assay buffer (prepared from a 100 μM DMSO stock) with a MultiDrop Combi (ThermoFisher). The final concentration of N-terminal PMS2 was 10 nM and the final concentration of probe compound was 5 nM.
Compound plates were centrifuged for 1 minute at 250×g for 1 minute and were incubated at room temperature for 1 hour before being read on a PheraStar FSX (fitted with 384-well aperture spoon and 540 590 590 FP optic module). The gain and focus were adjusted before each plate was read so that the polarisation of a no enzyme control (column 24) was equal to 35 mP. Data were normalised against the no inhibitor controls (column 23) and no enzyme controls (column 24).

[2] = target: T2, recombinant N-terminal MLH1 (residues 15-340) (Homo sapiens, UniProt P40692); experiment: Fluorescence Polarisation Assay for MLH1; format: binding; conditions: fluorescence polarisation probe displacement; 100 nM N-terminal MLH1, 5 nM probe compound
T2 construct: recombinant N-terminal MLH1 (residues 15-340)
T2 sequence (P40692 15-340): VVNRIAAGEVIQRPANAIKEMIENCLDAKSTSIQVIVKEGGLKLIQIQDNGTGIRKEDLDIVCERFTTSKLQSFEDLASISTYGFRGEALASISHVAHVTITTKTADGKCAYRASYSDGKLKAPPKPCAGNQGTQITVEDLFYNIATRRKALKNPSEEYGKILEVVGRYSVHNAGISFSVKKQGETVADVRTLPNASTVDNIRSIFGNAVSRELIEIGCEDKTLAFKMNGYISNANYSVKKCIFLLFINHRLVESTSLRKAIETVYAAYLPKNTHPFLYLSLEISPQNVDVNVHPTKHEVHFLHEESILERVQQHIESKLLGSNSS
Protocol: Fluorescence Polarisation Assay for MLH1
Test compounds, as 10 mM DMSO stocks, were dispensed into a 384-well Low Flange Black Flat Bottom Polystyrene Non-binding Surface plate (Corning®, item number 3575) using a Labcyte Echo acoustic liquid handler. Test compounds were added to wells in columns 1-22 whilst DMSO was added to wells in columns 23 and 24 in order to normalise the plate. 20 μL of a 2× solution (200 nM) of recombinant N-terminal MLH1 (residues 15-340) in assay buffer (25 mM HEPES, pH 7.5, 250 mM NaCl, 10 mM MgCl2, 0.01% Triton X-100, 5 mM dithiothreitol) was added to all wells in columns 1-23 and 20 μL assay buffer was added to all wells in column 24 using an E1-ClipTip pipette (ThermoFisher). Plates were centrifuged for 1 minute at 250×g and were incubated at room temperature for 30 minutes prior to the addition of 20 μL of 2× (10 nM) 5-((5-(4-((2-(2,4-dihydroxy-5-isopropylbenzoyl)isoindolin-5-yl)methyl)piperazin-1-yl)pentyl)carbamoyl)-2-(6-(dimethylamino)-3-(dimethyliminio)-3H-xanthen-9-yl)benzoate in assay buffer (prepared from a 1 mM DMSO stock) with an E1-ClipTip pipette (ThermoFisher). The final concentration of N-terminal MLH1 was 100 nM and the final concentration of the probe compound was 5 nM. Compound plates were centrifuged for 1 minute at 250×g for 1 minute and immediately read on a PheraStar FSX (fitted with 384-well aperture spoon and 590 675 675 FP optic module). The gain and focus were adjusted before each plate was read so that the polarisation of a no enzyme control (column 24) was equal to 35 mP. Data were normalised against the no inhibitor controls (column 23) and no enzyme controls (column 24).

| Structure (SMILES) | IC50 [1] | IC50 [2] |
| --- | --- | --- |
| Cn1ncc(Nc2cccc3c2CN(C(=O)c2c(O)cc(O)cc2OCc2ccccc2)C3)n1 [Example 35, (2-(Benzyloxy)-4,6-dihydroxyphenyl)(4-((2-methyl-2H-1,2,3-triazol-4-yl)amino)isoindolin-2-yl)methanone] | 1000 to 10000 nM | < 1000 nM |
| CC(=O)N1CCC(Nc2cccc3c2CN(C(=O)c2c(O)cc(O)cc2OCc2ccccc2)C3)C1 (stereo not drawn) [Example 36, 1-(3-((2-(2-(Benzyloxy)-4,6-dihydroxybenzoyl)isoindolin-4-yl)amino)pyrrolidin-1-yl)ethan-1-one] | 1000 to 10000 nM | < 1000 nM |
| O=C(c1c(O)cc(O)cc1OCc1ccc(F)cc1)N1Cc2cccc(NC3CCOC3)c2C1 (stereo not drawn) [Example 37, (2-((4-Fluorobenzyl)oxy)-4,6-dihydroxyphenyl)(4-((tetrahydrofuran-3-yl)amino)isoindolin-2-yl)methanone] | 1000 to 10000 nM | < 1000 nM |
| O=C(c1c(O)cc(O)cc1OCc1ccc(F)c(F)c1)N1Cc2cccc(NC3CCOC3)c2C1 (stereo not drawn) [Example 38, (2-((3,4-Difluorobenzyl)oxy)-4,6-dihydroxyphenyl)(4-((tetrahydrofuran-3-yl)amino)isoindolin-2-yl)methanone] | 1000 to 10000 nM | < 1000 nM |
| COc1ccc(COc2cc(O)cc(O)c2C(=O)N2Cc3cccc(NC4CCOC4)c3C2)cc1 (stereo not drawn) [Example 39, (2,4-Dihydroxy-6-((4-methoxybenzyl)oxy)phenyl)(4-((tetrahydrofuran-3-yl)amino)isoindolin-2-yl)methanone] | 1000 to 10000 nM | < 1000 nM |
| O=C(c1c(O)cc(O)cc1OCc1ccccn1)N1Cc2cccc(NC3CCOC3)c2C1 (stereo not drawn) [Example 40, (2,4-Dihydroxy-6-(pyridin-2-ylmethoxy)phenyl)(4-((tetrahydrofuran-3-yl)amino)isoindolin-2-yl)methanone] | > 10000 nM | < 1000 nM |
| O=C(c1c(O)cc(O)cc1OCc1ccccc1)N1CCc2cccc(NC3COC3)c2C1 [Example 41, (2-(Benzyloxy)-4,6-dihydroxyphenyl)(8-(oxetan-3-ylamino)-3,4-dihydroisoquinolin-2(1H)-yl)methanone] | 1000 to 10000 nM | < 1000 nM |
| CN1CC(Nc2cccc3c2CN(C(=O)c2c(O)cc(O)cc2OCc2ccccc2)CC3)CC1=O (stereo not drawn) [Example 42, 4-((2-(2-(Benzyloxy)-4,6-dihydroxybenzoyl)-1,2,3,4-tetrahydroisoquinolin-8-yl)amino)-1-methylpyrrolidin-2-one] | < 1000 nM | < 1000 nM |
| CNc1cccc2c1CN(C(=O)c1c(O)cc(O)cc1OCc1ccccc1)CC2 [Example 43, (2-(Benzyloxy)-4,6-dihydroxyphenyl)(8-(methylamino)-3,4-dihydroisoquinolin-2(1H)-yl)methanone] | 1000 to 10000 nM | < 1000 nM |
| COCCNc1cccc2c1CN(C(=O)c1c(O)cc(O)cc1OCc1ccccc1)CC2 [Example 44, (2-(Benzyloxy)-4,6-dihydroxyphenyl)(8-((2-methoxyethyl)amino)-3,4-dihydroisoquinolin-2(1H)-yl)methanone] | 1000 to 10000 nM | < 1000 nM |
| CC(Nc1cccc2c1CN(C(=O)c1c(O)cc(O)cc1OCc1ccccc1)C2)C1COC1 (stereo not drawn) [Example 45, (2-(Benzyloxy)-4,6-dihydroxyphenyl)(4-((1-(oxetan-3-yl)ethyl)amino)isoindolin-2-yl)methanone] | 1000 to 10000 nM | 1000 to 10000 nM |
| CN(C)Cc1ccc2c(c1)CCN(C(=O)c1c(O)cc(O)cc1OCc1ccccc1)C2 [Example 46, (2-Benzyloxy-4,6-dihydroxy-phenyl)-[6-[(dimethylamino)methyl]-3,4-dihydro-1H-isoquinolin-2-yl]methanone] | 1000 to 10000 nM | 1000 to 10000 nM |
| CN(C)Cc1ccc2c(c1)CN(C(=O)c1c(O)cc(O)cc1OCc1ccccc1)CC2 [Example 47, (2-Benzyloxy-4,6-dihydroxy-phenyl)-[7-[(dimethylamino)methyl]-3,4-dihydro-1H-isoquinolin-2-yl]methanone] | 1000 to 10000 nM | 1000 to 10000 nM |
| COc1ccc2c(c1)CCN(C(=O)c1c(O)cc(O)cc1OCc1ccccc1)C2 [Example 48, (2-Benzyloxy-4,6-dihydroxy-phenyl)-(6-methoxy-3,4-dihydro-1H-isoquinolin-2-yl)methanone] | 1000 to 10000 nM | 1000 to 10000 nM |
| COc1ccc2c(c1)CN(C(=O)c1c(O)cc(O)cc1OCc1ccccc1)CC2 [Example 49, (2-Benzyloxy-4,6-dihydroxy-phenyl)-(7-methoxy-3,4-dihydro-1H-isoquinolin-2-yl)methanone] | 1000 to 10000 nM | 1000 to 10000 nM |
| CC12CC(Nc3cccc4c3CN(C(=O)c3c(O)cc(O)cc3OCc3ccccc3)C4)(CO1)C2 [Example 52, (2-(Benzyloxy)-4,6-dihydroxyphenyl)(4-((1-methyl-2-oxabicyclo[2.1.1]hexan-4-yl)amino)isoindolin-2-yl)methanone] | 1000 to 10000 nM | < 1000 nM |
| O=C(c1c(O)cc(O)cc1OCc1ccccc1)N1Cc2cccc(NC34CCC(C3)OC4)c2C1 (stereo not drawn) [Example 53, (4-((2-Oxabicyclo[2.2.1]heptan-4-yl)amino)isoindolin-2-yl)(2-(benzyloxy)-4,6-dihydroxyphenyl)methanone] | 1000 to 10000 nM | < 1000 nM |
| COc1cc2c(c(NC3CCOC3)c1)CN(C(=O)c1c(O)cc(O)cc1OCc1ccccc1)CC2 (stereo not drawn) [Example 54, (2-(Benzyloxy)-4,6-dihydroxyphenyl)(6-methoxy-8-((tetrahydrofuran-3-yl)amino)-3,4-dihydroisoquinolin-2(1H)-yl)methanone] | 1000 to 10000 nM | < 1000 nM |
| O=C(c1c(O)cc(O)cc1OCc1ccccn1)N1CCc2cccc(N[C@H]3CCOC3)c2C1 [Example 55, (S)-(2,4-Dihydroxy-6-(pyridin-2-ylmethoxy)phenyl)(8-((tetrahydrofuran-3-yl)amino)-3,4-dihydroisoquinolin-2(1H)-yl)methanone] | 1000 to 10000 nM | < 1000 nM |
| O=C(c1c(O)cc(O)cc1OCc1ccccn1)N1CCc2cccc(N[C@@H]3CCOC3)c2C1 [Example 56, (R)-(2,4-dihydroxy-6-(pyridin-2-ylmethoxy)phenyl)(8-((tetrahydrofuran-3-yl)amino)-3,4-dihydroisoquinolin-2(1H)-yl)methanone] | > 10000 nM | < 1000 nM |
| O=C(c1c(O)cc(O)cc1OCc1ccccn1)N1CCc2cccc(NC3COC3)c2C1 [Example 57, (2,4-Dihydroxy-6-(pyridin-2-ylmethoxy)phenyl)(8-(oxetan-3-ylamino)-3,4-dihydroisoquinolin-2(1H)-yl)methanone] | > 10000 nM | < 1000 nM |
